Measurements from publication PMC6056506, “Single olfactory receptors set odor detection thresholds” (Nature Communications, 2018).

How the values were obtained:
Experiment in all cases: in vivo wide-field GCaMP3 calcium imaging of identified glomeruli, awake mice
[1] = target: T1, TAAR3 (Mus musculus, UniProt Q5QD16); conditions: agonist, vapour-phase odorant concentration (flow dilution olfactometer), not aqueous, glomerular read-out
T1 construct: full-length native receptor from endogenous locus in olfactory sensory neurons; allele TAAR3-IRES-tauVenus (TAAR3-YFP); receptor itself untagged
T1 sequence (Q5QD16 1-343): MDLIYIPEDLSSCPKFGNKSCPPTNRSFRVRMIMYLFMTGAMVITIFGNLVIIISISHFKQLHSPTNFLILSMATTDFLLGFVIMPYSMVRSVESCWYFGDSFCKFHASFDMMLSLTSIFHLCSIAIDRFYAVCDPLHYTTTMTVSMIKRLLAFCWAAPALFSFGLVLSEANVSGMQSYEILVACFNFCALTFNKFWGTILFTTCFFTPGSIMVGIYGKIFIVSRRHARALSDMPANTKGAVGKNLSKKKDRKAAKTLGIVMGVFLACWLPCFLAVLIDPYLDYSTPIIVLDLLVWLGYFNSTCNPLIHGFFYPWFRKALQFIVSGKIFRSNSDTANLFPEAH

[2] = target: T2, TAAR5 (Mus musculus, UniProt Q5QD14); conditions: agonist; vapour-phase odorant concentration (flow dilution olfactometer), not aqueous; glomerular read-out
T2 construct: full-length native receptor in olfactory sensory neurons; glomeruli identified by response profile and from separate TAAR5-RFP imaging experiments
T2 sequence (Q5QD14 1-337): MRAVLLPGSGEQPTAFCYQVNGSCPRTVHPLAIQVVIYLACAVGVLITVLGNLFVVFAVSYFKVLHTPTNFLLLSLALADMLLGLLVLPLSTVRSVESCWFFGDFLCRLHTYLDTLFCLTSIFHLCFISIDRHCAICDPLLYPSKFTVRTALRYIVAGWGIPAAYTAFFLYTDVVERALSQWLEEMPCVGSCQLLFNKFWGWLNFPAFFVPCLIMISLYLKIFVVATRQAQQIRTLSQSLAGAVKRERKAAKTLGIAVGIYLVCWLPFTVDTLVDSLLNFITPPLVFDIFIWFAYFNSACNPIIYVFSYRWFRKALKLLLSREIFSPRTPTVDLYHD

[3] = target: T3, TAAR4 (Mus musculus, UniProt Q5QD15); conditions: agonist; vapour-phase odorant concentration (flow dilution olfactometer), not aqueous; glomerular read-out
T3 construct: full-length native receptor from endogenous locus in olfactory sensory neurons; allele TAAR4-IRES-tauCherry (TAAR4-RFP); receptor itself untagged
T3 sequence (Q5QD15 1-347): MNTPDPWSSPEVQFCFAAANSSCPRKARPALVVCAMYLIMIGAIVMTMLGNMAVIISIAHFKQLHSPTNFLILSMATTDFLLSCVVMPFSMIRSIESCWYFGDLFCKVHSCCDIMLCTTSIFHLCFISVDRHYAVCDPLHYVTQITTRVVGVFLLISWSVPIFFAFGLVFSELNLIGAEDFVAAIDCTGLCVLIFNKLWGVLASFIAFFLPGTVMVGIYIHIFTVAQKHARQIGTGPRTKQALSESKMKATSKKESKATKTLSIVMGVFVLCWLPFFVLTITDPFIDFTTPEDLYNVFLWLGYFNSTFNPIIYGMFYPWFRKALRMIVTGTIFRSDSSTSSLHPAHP

| SMILES | EC50 ([1]; printed CI does not contain the value) | EC50 [2] | EC50 [3] | EC50 [1] |
| --- | --- | --- | --- | --- |
| NCCc1ccccc1 [phenylethylamine] | 0.19 nM |  |  |  |
| CN(C)C [trimethylamine] |  | 31 nM | 470 nM | 790 nM |
| CC(C)CCN [isopentylamine] |  |  | 9.9 nM | 0.41 nM |
